Test results published in patent US20140005163A1 (NOVARTIS AG, priority 2010, published 2014).
In brackets after ≈: the same amount, converted by molar mass.

Assays:
[1] = test system: S6 Ribosomal Protein phosphorylation Ser235/236 in TSC1 null mouse embryo fibroblast (MEF) cells; test: Reverse protein array assay, S6 Ribosomal Protein phosphorylation Ser235/236 in TSC1 null MEF cells; format: cell-based; settings: 1 h, pS6 ribosomal protein Ser235/236, 60 minutes incubation, read-out: p-S6 IC50
In short: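 TSC1−/− MEFs, seeded and held ≥20 h at 37 °C/5% CO2, were exposed to 8-step serial compound dilutions (0.02% DMSO final; DMSO vehicle control) for 60 min at 37 °C. Cells were then lysed on ice for 10 min and lysates spotted onto reverse protein array chips.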

[2] = test system: PKB Ser473 phosphorylation in Rat1-myr-HA-p110 beta cells; test: Reverse protein array assay, PKB Ser473 phosphorylation in Rat1-myr-p110 beta cells; format: cell-based; settings: 0.5 h, pAkt Ser473, 30 minutes incubation, read-out: p-PKB IC50
In short: (§1)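 Compound exposure lasted 30 min in Rat1 cells bearing membrane-targeted HA-p110 isoforms, using 8 serial concentrations. Arrayed lysates, each spotted at four dilutions, gave relative fluorescence signals for phospho-Ser473 PKB.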

[3] = test system: PKB Ser473 phosphorylation in Rat1-myr-HA-p110 alpha cells; test: Reverse protein array assay, PKB Ser473 phosphorylation in Rat1-myr-p110 alpha cells; format: cell-based; settings: 0.5 h, pAkt Ser473, 30 minutes compound incubation, read-out: p-PKB IC50
In short: as §1

Solubility at pH 6.8 = format: physicochemical; settings: pH 6.8, aqueous buffer, thermodynamic from solid; read-out: solubility
In short: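 Following the procedure of Zhou et al. (2007), compound solubility was determined at pH 6.8.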

[4] = test system: PKB Ser473 phosphorylation in Rat1-myr-HA-p110 delta cells; test: Reverse protein array assay, PKB Ser473 phosphorylation in Rat1-myr-p110 delta cells; format: cell-based; settings: read-out: p-PKB IC50
In short: as §1

SMILES	IC50 [2] [nM]	IC50 [3] [nM]	solubility (Solubility at pH 6.8) [µg/mL]	IC50 [4] [nM]	IC50 [1] [nM]
Cc1nn(C)cc1-n1c(=O)n(C)c2cnc3ccc(-c4cccc(N(C)S(C)(=O)=O)c4)cc3c21 [Example 117, N-{3-[1-(1,3-Dimethyl-1H-pyrazol-4-yl)-3-methyl-2-oxo-2,3-dihydro-1H-imidazo[4,5-c]quinolin-8-yl]-phenyl}-N-methyl-methanesulfonamide]	659	282	3 (≈ 6.3 µM)	425	154
COc1ccc(-c2ccc3ncc4c(c3c2)n(-c2cn(CC(=O)N(C)C)nc2C)c(=O)n4C)cn1 [Example 102, 2-{4-[8-(6-Methoxy-pyridin-3-yl)-3-methyl-2-oxo-2,3-dihydro-imidazo[4,5-c]quinolin-1-yl]-3-methyl-pyrazol-1-yl}-N,N-dimethyl-acetamide]	34	33	7 (≈ 14.8 µM)	78	< 5
CCNc1cncc(-c2ccc3ncc4c(c3c2)n(-c2cn(C)nc2C)c(=O)n4C)c1 [Example 122, 1-(1,3-Dimethyl-1H-pyrazol-4-yl)-8-(5-ethylamino-pyridin-3-yl)-3-methyl-1,3-dihydro-imidazo[4,5-c]quinolin-2-one]	22	< 5	5 (≈ 12.1 µM)	56	< 0.5
CNc1ncc(-c2ccc3ncc4c(c3c2)n(-c2cn(C(C)C)nc2C)c(=O)n4C)cc1CO [Example 171, 8-(5-Hydroxymethyl-6-methylamino-pyridin-3-yl)-1-(1-isopropyl-3-methyl-1H-pyrazol-4-yl)-3-methyl-1,3-dihydro-imidazo[4,5-c]quinolin-2-one]	< 5	9	5 (≈ 10.9 µM)	41	3
C=CCn1c(=O)n(-c2cn(C)nc2C)c2c3cc(-c4cncc(N)c4)ccc3ncc21 [Example 246, 3-Allyl-8-(5-amino-pyridin-3-yl)-1-(1,3-dimethyl-1H-pyrazol-4-yl)-1,3-dihydro-imidazo[4,5-c]quinolin-2-one]	294	227	75 (≈ 182 µM)	837	41
CCOC(C)(C)c1cncc(-c2ccc3ncc4c(c3c2)n(-c2cn(C)nc2C)c(=O)n4C)c1 [Example 240, 1-(1,3-Dimethyl-1H-pyrazol-4-yl)-8-[5-(1-ethoxy-1-methyl-ethyl)-pyridin-3-yl]-3-methyl-1,3-dihydro-imidazo[4,5-c]quinolin-2-one]	128	72	4 (≈ 8.76 µM)	131	11
CCNc1cc(-c2ccc3ncc4c(c3c2)n(-c2cn(C)nc2C)c(=O)n4C)cnc1COC [Example 156, 1-(1,3-Dimethyl-1H-pyrazol-4-yl)-8-(5-ethylamino-6-methoxymethyl-pyridin-3-yl)-3-methyl-1,3-dihydro-imidazo[4,5-c]quinolin-2-one]	5	10	> 458	12	1
Cc1nn(C)cc1-n1c(=O)n(C)c2cnc3ccc(-c4cncc(OC(CF)CF)c4)cc3c21 [Example 182, 1-(1,3-Dimethyl-1H-pyrazol-4-yl)-8-[5-(2-fluoro-1-fluoromethyl-ethoxy)-pyridin-3-yl]-3-methyl-1,3-dihydro-imidazo[4,5-c]quinolin-2-one]	18	15	56 (≈ 121 µM)	56	5
Cc1nn(C)cc1-n1c(=O)n(C)c2cnc3ccc(-c4cncc(C(C)O)c4)cc3c21 (racemic) [Example 217, (rac)-1-(1,3-Dimethyl-1H-pyrazol-4-yl)-8-[5-(1-hydroxy-ethyl)-pyridin-3-yl]-3-methyl-1,3-dihydro-imidazo[4,5-c]quinolin-2-one]	161	108	414 (≈ 999 µM)	249	10
Cc1nn(C)cc1-n1c(=O)n(C)c2cnc3ccc(-c4cccnc4)cc3c21 [Example 10.2, 1-(1,3-Dimethyl-1H-pyrazol-4-yl)-3-methyl-8-pyridin-3-yl-1,3-dihydro-imidazo[4,5-c]quinolin-2-one]	58	50	42 (≈ 113 µM)	197	24
COc1ccc(-c2ccc3ncc4c(c3c2)n(-c2c(C)nn(C)c2C)c(=O)n4C)cc1OC [Example 1.9, 8-(3,4-Dimethoxy-phenyl)-3-methyl-1-(1,3,5-trimethyl-1H-pyrazol-4-yl)-1,3-dihydro-imidazo[4,5-c]quinolin-2-one]	113	26	315 (≈ 710 µM)	140	44
CCOc1ccc(-c2ccc3ncc4c(c3c2)n(-c2cn(CCOC)nc2C)c(=O)n4C)cn1 [Example 131, 8-(6-Ethoxy-pyridin-3-yl)-1-[1-(2-methoxy-ethyl)-3-methyl-1H-pyrazol-4-yl]-3-methyl-1,3-dihydro-imidazo[4,5-c]quinolin-2-one]	29	41	4 (≈ 8.72 µM)	127	5
CCCOc1ccc(-c2ccc3ncc4c(c3c2)n(-c2cn(C)nc2C)c(=O)n4C)cn1 [Example 55, 1-(1,3-Dimethyl-1H-pyrazol-4-yl)-3-methyl-8-(6-propoxy-pyridin-3-yl)-1,3-dihydro-imidazo[4,5-c]quinolin-2-one]	21	20	3 (≈ 7 µM)	54	18

Now from value to molecule, other results behind:

IC50 [2] [nM]	IC50 [3] [nM]	solubility (Solubility at pH 6.8) [µg/mL]	IC50 [4] [nM]	SMILES	IC50 [1] [nM]
14	8	3 (≈ 7.02 µM)	12	CNc1ccc(-c2ccc3ncc4c(c3c2)n(-c2cn(C(C)C)nc2C)c(=O)n4C)cn1 [Example 118.1, 1-(1-isopropyl-3-methyl-1H-pyrazol-4-yl)-3-methyl-8-(6-methylamino-pyridin-3-yl)-1,3-dihydro-imidazo[4,5-c]quinolin-2-one]	5
52	28	69 (≈ 128 µM)	157	CCN(CC)C(=O)Cn1cc(-n2c(=O)n(C)c3cnc4ccc(-c5cnc(N6CCCC6)nc5)cc4c32)c(C)n1 [Example 247.1, N,N-Diethyl-2-{3-methyl-4-[3-methyl-2-oxo-8-(2-pyrrolidin-1-yl-pyrimidin-5-yl)-2,3-dihydro-imidazo[4,5-c]quinolin-1-yl]-pyrazol-1-yl}-acetamide]	3
10	9	94 (≈ 208 µM)	27	COc1cc(-c2ccc3ncc4c(c3c2)n(-c2cn(C)nc2Cl)c(=O)n4C)cnc1CO [Example 194.2, 1-(3-chloro-1-methyl-1H-pyrazol-4-yl)-8-(6-hydroxymethyl-5-methoxy-pyridin-3-yl)-3-methyl-1,3-dihydro-imidazo[4,5-c]quinolin-2-one]	2
34	74	75 (≈ 181 µM)	130	CCn1cc(-n2c(=O)n(C)c3cnc4ccc(-c5ccc(CO)nc5)cc4c32)c(C)n1 [Example 16.1, 1-(1-ethyl-3-methyl-1H-pyrazol-4-yl)-8-(6-hydroxymethyl-pyridin-3-yl)-3-methyl-1,3-dihydro-imidazo[4,5-c]quinolin-2-one]	33
43	107	21 (≈ 44.6 µM)	396	CNc1ccc(-c2ccc3ncc4c(c3c2)n(-c2cn(CC(=O)N(C)C)nc2C)c(=O)n4C)cn1 [Example 118.3, N,N-Dimethyl-2-{3-methyl-4-[3-methyl-8-(6-methylamino-pyridin-3-yl)-2-oxo-2,3-dihydro-imidazo[4,5-c]quinolin-1-yl]-pyrazol-1-yl}-acetamide]	15
28	24	136 (≈ 340 µM)	59	Cc1ncc(-c2ccc3ncc4c(c3c2)n(-c2cn(C)nc2C)c(=O)n4C)cc1N [Example 88.2, 8-(5-Amino-6-methyl-pyridin-3-yl)-1-(1,3-dimethyl-1H-pyrazol-4-yl)-3-methyl-1,3-dihydro-imidazo[4,5-c]quinolin-2-one]	7
85	33	> 486	91	CCNc1cc(-c2ccc3ncc4c(c3c2)n(-c2c(C)nn(CCOC)c2C)c(=O)n4C)cnc1C [Example 87.4, 8-(5-Ethylamino-6-methyl-pyridin-3-yl)-1-[1-(2-methoxy-ethyl)-3,5-dimethyl-1H-pyrazol-4-yl]-3-methyl-1,3-dihydro-imidazo[4,5-c]quinolin-2-one]	41
81	44	129 (≈ 281 µM)	145	COc1cc(-c2ccc3ncc4c(c3c2)n(-c2cn(C(C)C)nc2C)c(=O)n4C)cnc1CO [Example 194.1, 8-(6-Hydroxymethyl-5-methoxy-pyridin-3-yl)-1-(1-isopropyl-3-methyl-1H-pyrazol-4-yl)-3-methyl-1,3-dihydro-imidazo[4,5-c]quinolin-2-one]	20
